{"source": "patent US11992497B2", "about": "(priority 2021, dated 2024)", "key": {"[1]": {"assay": "Hepatocyte stability and metabolite profiling", "format": "in vitro ADME", "conditions": "cryopreserved hepatocytes in suspension; Mouse cryopreserved hepatocytes", "experimental": "(§1) The objective of this study was to investigate the stability of the test compound, CBG, in human, rat, dog, mouse, monkey and minipig cryopreserved hepatocytes. Follow-on metabolite profiling was performed.\n(§2) CBG was incubated up to 2 hr with cryopreserved hepatocytes. Cryopreserved hepatocytes in suspension were added to test compound in supplemented media following pre-incubation to initiate the reaction and the reactions were stopped by organic solvent at the appropriate time points. The termination plates were centrifuged and sample supernatants were analysed using Cyprotex generic LC MS/MS conditions to generate intrinsic clearance values for CBG. Two control compounds for each species were included in the assay and if the values for these compounds were not within the specified limits the results were rejected and the experiment repeated.\nFollowing the hepatocyte stability assay the samples were 59tilized for metabolite profiling using suitable high-resolution LC-MS/MS conditions. The 40 and 60 minute human samples, 20 and 120 minute rat samples, 10 and 20 minute dog and monkey samples, 20 and 60 minute mouse samples, and 40 and 120 minute minipig samples were compared against the 0 minute control sample to establish which and how many metabolites were formed. […]\nThe areas and percentages reported for the parent and metabolites were calculated using the XIC data. […]"}, "[2]": {"assay": "Hepatocyte stability and metabolite profiling", "format": "in vitro ADME, dog", "conditions": "cryopreserved hepatocytes in suspension; Dog cryopreserved hepatocytes", "experimental": "as §1, §2\n(§3) Following the hepatocyte stability assay the samples were 59tilized for metabolite profiling using suitable high-resolution LC-MS/MS conditions. The 40 and 60 minute human samples, 20 and 120 minute rat samples, 10 and 20 minute dog and monkey samples, 20 and 60 minute mouse samples, and 40 and 120 minute minipig samples were compared against the 0 minute control sample to establish which and how many metabolites were formed. […] No further analysis was carried out with the mouse species.\n(§4) The areas and percentages reported for the parent and metabolites were calculated using the XIC data. Metabolite observed at greater than 1% of the total of drug related material are reported. […] For accuracy, a ppm error of less than 5 is desirable; when the response for a metabolite observed is low the ppm error maybe greater than 5. Where a metabolite has been referred to as a potential oxidation it can refer to a potential hydroxylation, epoxidation or oxide formation. Representative collision induced dissociation (CID) mass spectra were obtained for the metabolites found."}, "[3]": {"tested_on": "cryopreserved hepatocytes", "assay": "Hepatocyte stability and metabolite profiling", "format": "in vitro ADME, dog", "conditions": "dog hepatocyte samples", "experimental": "as §1, §2, §3, §4"}, "[4]": {"assay": "Hepatocyte stability and metabolite profiling", "format": "in vitro ADME, minipig", "conditions": "cryopreserved hepatocytes in suspension; Minipig cryopreserved hepatocytes", "experimental": "as §1, §2, §3, §4"}, "[5]": {"tested_on": "cryopreserved hepatocytes", "assay": "Hepatocyte stability and metabolite profiling", "format": "in vitro ADME, minipig", "conditions": "minipig hepatocyte samples", "experimental": "as §1, §2, §3, §4"}, "[6]": {"tested_on": "p-cMyc(S62), cMyc, p-AKT(S473), AKT, p-ERK(T202/Y204), ERK", "assay": "Target engagement Western blot in HCT116 cells", "format": "cell-based", "conditions": "10-80 μM, 3 hours", "experimental": "For Western blot, the compounds were tested at 4 concentrations for 3 hours on 3 colon cancer cell lines. The compounds, concentrations, colon cancer cell line panel, and antibodies panel tested are the following: • CBG: 0 μM, 10 μM, 20 μM, 40 μM, and 80 μM. • Compound 1: 0 μM, 10 μM, 20 μM, 40 μM, and 80 μM. • Compound 2: 0 μM, 10 μM, 20 μM, 40 μM, and 80 μM. • Colon cancer cell line panel: SW620, HCT15, HCT116 • Antibodies panel: p-cMYC(S62), cMyc, p-AKT(S473), AKT, p-ERK(T202/Y204), ERK Methods\nEvaluation of target engagement was performed to determine the expression of specific marker protein expression and underlying signaling pathways with Western blot.\nWestern blot. Whole cell extracts were prepared by incubating cell pellets in IP lysis buffer supplemented with protease and phosphatase inhibitors (Roche). Isolated protein was quantified by Pierce BCA Protein assay (ThermoFisher). Equal quantities of protein were separated by 4-15% SDS-PAGE electrophoresis gels and transferred onto nitrocellulose membranes. Membranes was blocked with 5% nonfat milk in Tris-buffered saline-Tween buffer. […]"}}}
{"smiles": "CCCCCc1cc(O)c(C/C=C(\\C)CCC=C(C)C)c(O)c1", "note": "[CBG, cannabigerol]", "values": [{"measurement": "half-life", "setting": "[1]", "result": 42.2, "unit": "min"}, {"measurement": "hepatocyte CLint", "setting": "[1]", "result": 32.8, "unit": "µL/min/1e6 cells"}, {"measurement": "half-life", "setting": "[2]", "result": 52.7, "unit": "min"}, {"measurement": "hepatocyte CLint", "setting": "[2]", "result": 26.3, "unit": "µL/min/1e6 cells"}, {"measurement": "number of metabolites observed", "setting": "[3]", "result": "three"}, {"measurement": "half-life", "setting": "[4]", "result": 42.7, "unit": "min"}, {"measurement": "hepatocyte CLint", "setting": "[4]", "result": 32.5, "unit": "µL/min/1e6 cells"}, {"measurement": "number of metabolites observed", "setting": "[5]", "result": "four"}]}
{"smiles": "CCCCCc1cc(O)c(C/C=C(\\C)CCC=C(C)C)c(OC)c1", "note": "[Compound 1, (E)-2-(3,7-dimethylocta-2,6-dien-1-yl)-3-methoxy-5-pentylphenol]", "values": [{"measurement": "pAKT(S473) (Western blot)", "setting": "[6]", "result": "down-regulated pAKT(S473) in HCT116 cells with a dose effect"}]}
